The NIST ThermoML archive (doi:10.1016/j.fluid.2011.02.020)
± gives the expanded uncertainty stated by the source.

Experiment: mn = molality of the nth substance listed, in mol/kg
Conditions: 298.15 K, 101 kPa, Liquid, Vibrating tube method

FC(F)(F)C(F)(F)C(F)(F)C(F)(F)C(F)(F)C(F)(F)F [perfluorohexane] + CCCCCCCC
Conditions	molar volume [m3/mol]
m1 = 0.088	0.0002294 ± 3e-06
m1 = 0.1035	0.0002312 ± 3e-06
m1 = 0.131	0.0002293 ± 3e-06
m1 = 0.1624	0.0002278 ± 3e-06
m1 = 0.1833	0.0002292 ± 3e-06
m1 = 0.2156	0.0002299 ± 3e-06
m1 = 0.2594	0.0002276 ± 3e-06
m1 = 0.268	0.0002308 ± 3e-06
m1 = 0.304	0.0002288 ± 3e-06
m1 = 0.3424	0.0002285 ± 3e-06
m1 = 0.3621	0.00023 ± 3e-06
m1 = 0.4051	0.0002288 ± 3e-06

CCCCCCC(F)(F)C(F)(F)C(F)(F)C(F)(F)F [1,1,1,2,2,3,3,4,4-nonafluorodecane] + CCCCCCCC
Conditions	molar volume [m3/mol]
m1 = 0.0465	0.0002496 ± 3e-06
m1 = 0.0608	0.0002501 ± 3e-06
m1 = 0.0703	0.0002498 ± 3e-06
m1 = 0.1003	0.0002498 ± 3e-06
m1 = 0.1403	0.0002498 ± 3e-06
m1 = 0.1663	0.0002493 ± 3e-06
m1 = 0.1689	0.0002492 ± 3e-06
m1 = 0.2127	0.0002497 ± 3e-06

FC(F)(F)C(F)(F)C(F)(F)C(F)(F)C(F)(F)C(F)(F)C(F)(F)C(F)(F)F [octadecafluorooctane] + CCCCCCCC
Conditions	molar volume [m3/mol]
m1 = 0.0362	0.0002822 ± 3e-06
m1 = 0.0617	0.0002816 ± 3e-06
m1 = 0.0923	0.0002798 ± 3e-06
m1 = 0.1157	0.0002803 ± 3e-06
m1 = 0.1445	0.0002792 ± 3e-06
m1 = 0.1585	0.0002786 ± 3e-06
m1 = 0.1808	0.0002784 ± 3e-06
m1 = 0.2115	0.0002788 ± 3e-06

CCCCCC(F)(F)C(F)(F)C(F)(F)C(F)(F)F [1,1,1,2,2,3,3,4,4-nonafluorononane] + CCCCCCCC
Conditions	molar volume [m3/mol]
m1 = 0.0527	0.0002338 ± 3e-06
m1 = 0.0601	0.0002337 ± 3e-06
m1 = 0.0947	0.0002337 ± 3e-06
m1 = 0.1337	0.0002337 ± 3e-06
m1 = 0.1437	0.0002336 ± 3e-06
m1 = 0.1755	0.0002334 ± 3e-06
m1 = 0.1914	0.0002334 ± 3e-06
m1 = 0.2141	0.0002334 ± 3e-06

CCCCCCCCC(F)(F)C(F)(F)C(F)(F)C(F)(F)F [1,1,1,2,2,3,3,4,4-nonafluorododecane] + CCCCCCCC
Conditions	molar volume [m3/mol]
m1 = 0.0685	0.0002816 ± 3e-06
m1 = 0.0996	0.0002815 ± 3e-06
m1 = 0.1061	0.0002817 ± 3e-06
m1 = 0.1259	0.0002815 ± 3e-06
m1 = 0.1271	0.0002817 ± 3e-06
m1 = 0.1522	0.0002818 ± 3e-06
m1 = 0.1885	0.0002815 ± 3e-06
m1 = 0.2032	0.0002815 ± 3e-06

FC(F)(F)C(F)(F)C(F)(F)C(F)(F)C(F)(F)C(F)(F)C(F)(F)C(F)(F)C(F)(F)F [eicosafluorononane] + CCCCCCCC
Conditions	molar volume [m3/mol]
m1 = 0.0532	0.0003069 ± 3e-06
m1 = 0.0565	0.000307 ± 3e-06
m1 = 0.0714	0.0003073 ± 3e-06
m1 = 0.0832	0.0003067 ± 3e-06
m1 = 0.1105	0.000307 ± 3e-06
m1 = 0.1219	0.0003062 ± 3e-06
m1 = 0.1488	0.0003058 ± 3e-06
m1 = 0.1513	0.0003065 ± 3e-06
